From patent publication EP0284725A2, “Indoxyl-beta-d-glucuronide and method for making” (QUEEN'S UNIVERSITY AT KINGSTON, priority 1987, dated 1988)
Structures can show the parent of a compound that is named as a salt.

Key:
[1] = tested on: Escherichia coli; test: Enzyme reaction of bacteria on m-TECB based agar media in microtiter plates, read visually by colour; format: cell-based
Excerpt: (§1) Enzyme activity was detected on the m-TEC medium of Dufour et al. (Dufour, A.P., E.R. Strickland and V.J. Cabelli. 1981. Membrane filter method for enumerating Eseherichia coli. Appl. Envion. Microbiol. 41: 1152-1158) prepared with the following modifications: bromocresol purple, bromophenol red and lactose were omitted; the modified m-TEC medium contained (g/1 proteose peptone No. 3, 5.0g; yeast extract 3.0g; glycerol 10.0g; NaCl 7.5g; K2HPO4 3.3g; KH2PO4 1.0g; sodium lauryl sulfate 0.2g; sodium deoxycholate 0.10g and agar 15.0g. The medium was autoclaved for 15 minutes at 121°C. The following chemicals, purchased from the Sigma Chemical Company, St.Louis. Mo., were added separately to the modified m-TEC medium after autoclaving and cooling to 50°C - 60°C: para-nitrophenyl-β- ? -glucuronide 400 mg/l; indoxyl-β- ? -glucoside 250 mg/l. Indoxyl-β- ? -glucuronide, prepared as described in Example 8, was added at 350-400 mg/l. The four agar media used in this study will be referred to as follows: modified m-TEC as m-TECB medium; the formulations of indoxyl-β-D -glucuronide as IGA, para-nitrophenyl-β-D-glucuronide as PNGA, and indoxyl-β-D -glucoside (indican) as IA media.
(§2) In this experiment, four organisms were tested for β- D -glucuronidase and β- D -glucosidase activity: American Type Culture Collection (ATCC) strains Escherichia Coli 35218 and Klebsiella pneumonia 13883; environmental isolates that have been characterized in our laboratory, Escherichia coli 83-17350 and Klebsiella pneumonia PHL.
(§3) A series of m-TECB agar basal media microtiter plates were prepared, using the m-TECB base media described in Example 9, and indoxyl-β- D -glucuronide, p-nitrophenyl-β- D -glucuronide or indoxyl-β-D-glucoside was added to respective plates. Specific bacteria from controlled sources, described above, were applied to the plates and incubated at 45°C for 16 2 hours.

[2] = tested on: Klebsiella pneumonia; test: as above; format: cell-based; settings: K. pneumonia
Excerpt: as §1, §2, §3

colour / reactivity [2]	SMILES	hydrolysis by the glucuronidase activity of E. coli [1]	colour / reactivity ([1]; Environmental and ATCC strains of E.coli)
	O=C(O)[C@H]1O[C@@H](Oc2c[nH]c3ccccc23)[C@H](O)[C@@H](O)[C@@H]1O [indoxyl-β- D -glucuronide, Indoxyl-β-D -Glucuronide Sodium Salt]	readily and specifically hydrolysed	
blue colour	OC[C@H]1O[C@@H](Oc2c[nH]c3ccccc23)[C@H](O)[C@@H](O)[C@@H]1O [indican, indoxyl-β-D -glucoside]		no reactivity
